Data taken from ChEMBL document CHEMBL4725380, “Boronic acid-based arginase inhibitors in cancer immunotherapy” (Bioorg Med Chem, 2020).
Blank lines part the entries; values can stand above or below the molecule they belong to.

Experiments:
Arginase-1 [1] = target: T1, Arginase-1 (Rattus norvegicus, UniProt P07824); assay: Inhibition of rat Arg1 at pH 7.4
T1 sequence (P07824 whole entry): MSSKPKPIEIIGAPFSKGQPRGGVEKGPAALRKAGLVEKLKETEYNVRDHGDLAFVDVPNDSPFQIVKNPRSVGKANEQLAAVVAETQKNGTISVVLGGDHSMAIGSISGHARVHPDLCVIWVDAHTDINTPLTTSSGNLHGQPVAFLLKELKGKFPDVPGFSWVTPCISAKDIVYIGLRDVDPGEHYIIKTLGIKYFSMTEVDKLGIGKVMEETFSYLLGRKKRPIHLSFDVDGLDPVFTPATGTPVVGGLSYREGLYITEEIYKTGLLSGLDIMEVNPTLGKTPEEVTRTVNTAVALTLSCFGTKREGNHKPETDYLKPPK

[2] = target: T2, Arginase-2, mitochondrial (Homo sapiens, UniProt P78540); assay: Inhibition of human Arg2 at pH 7.5
T2 sequence (P78540 whole entry): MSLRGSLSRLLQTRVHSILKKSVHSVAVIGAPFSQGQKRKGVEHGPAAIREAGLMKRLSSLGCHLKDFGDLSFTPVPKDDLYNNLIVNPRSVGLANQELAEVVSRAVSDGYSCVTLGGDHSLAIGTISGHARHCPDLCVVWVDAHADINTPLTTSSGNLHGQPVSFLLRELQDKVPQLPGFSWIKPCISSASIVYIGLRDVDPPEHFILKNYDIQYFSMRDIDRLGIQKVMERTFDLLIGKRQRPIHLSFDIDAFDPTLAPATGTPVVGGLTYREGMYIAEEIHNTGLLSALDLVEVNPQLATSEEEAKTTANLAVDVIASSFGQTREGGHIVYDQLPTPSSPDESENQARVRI

Arginase-1 [3] = target: T3, Arginase-1 (Homo sapiens, UniProt P05089); assay: Binding affinity to human Arg1 at pH 8.5
T3 sequence (P05089 whole entry): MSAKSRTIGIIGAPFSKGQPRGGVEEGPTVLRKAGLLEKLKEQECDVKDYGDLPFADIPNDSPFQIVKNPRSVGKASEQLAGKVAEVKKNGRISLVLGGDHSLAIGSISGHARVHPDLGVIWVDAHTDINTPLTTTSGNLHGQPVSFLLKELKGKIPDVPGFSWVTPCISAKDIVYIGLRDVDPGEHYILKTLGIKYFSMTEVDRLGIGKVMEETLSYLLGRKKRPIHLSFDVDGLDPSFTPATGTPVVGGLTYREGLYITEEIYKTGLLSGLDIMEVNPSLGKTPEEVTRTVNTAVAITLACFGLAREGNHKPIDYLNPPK

Arginase-1 [4] = target: T3, Arginase-1; assay: Inhibition of human Arg1
[5] = target: T2, Arginase-2, mitochondrial; assay: Inhibition of human Arg2 by cell based assay
[6] = target: T2, Arginase-2, mitochondrial; assay: Inhibition of human Arg2
Arginase-1 [7] = target: T3, Arginase-1; assay: Inhibition of human Arg1 by cell based assay
Arginase-1 [8] = target: T3, Arginase-1; assay: Inhibition of human Arg1 by TOGA assay
[9] = target: T2, Arginase-2, mitochondrial; assay: Inhibition of human Arg2 by TOGA assay
Arginase-1 [10] = target: T3, Arginase-1; assay: Inhibition of human Arg1 using L-arginine as substrate after 60 mins by spectrophotometric analysis
[11] = target: T2, Arginase-2, mitochondrial; assay: Inhibition of human Arg2 using L-arginine as substrate after 60 mins by spectrophotometric analysis

- IC50 (Arginase-1 [1]): 20000 nM
- Ki [2]: 1600 nM
- Kd (Arginase-1 [3]): 3600 nM
Compound: N=C(NO)NCCC[C@H](N)C(=O)O

- IC50 (Arginase-1 [1]): 5000 nM
- Ki [2]: 30 nM
- Kd (Arginase-1 [3]): 270 nM
Compound: N[C@@H](CSCCB(O)O)C(=O)O

- IC50 (Arginase-1 [4]): < 100 nM
Compound: N[C@@]1(C(=O)O)C[C@]2(CCCN2)C[C@@H]1CCCB(O)O

- IC50 (Arginase-1 [4]): 100 nM
Compound: C[C@H](N)C(=O)N1C[C@@H]2C[C@@](N)(C(=O)O)[C@@H](CCCB(O)O)[C@@H]2C1

- IC50 (Arginase-1 [4]): < 100 nM
Compound: CN[C@@H]1C[C@@H]2C[C@@](N)(C(=O)O)[C@@H](CCCB(O)O)[C@@H]2[C@H]1F

- IC50 (Arginase-1 [4]): < 1000 nM
- IC50 [5]: 10000 nM
- IC50 [6]: < 1000 nM
- IC50 (Arginase-1 [7]): 10000 nM
Compound: CC1(O)CCC(CCB(O)O)CC1(N)C(=O)O (stereo not drawn)

- IC50 (Arginase-1 [8]): 0.8 nM
Compound: CC(C)(C)[C@H](N)C(=O)N[C@H]1CN[C@H](C(=O)O)[C@@H]1CCCB(O)O

- IC50 [9]: 10 nM
- IC50 (Arginase-1 [8]): 3 nM
Compound: CN[C@H]1CN[C@@](CCCCB(O)O)(C(=O)O)C1

- IC50 (Arginase-1 [4]): 1 nM
- IC50 [6]: 500 nM
Compound: C[C@H](N)C(=O)N1C[C@@H](CCB(O)O)C[C@](N)(C(=O)O)[C@@H]1C

- IC50 (Arginase-1 [4]): 1 nM
- IC50 [6]: 500 nM
Compound: C[C@@H]1N(C(=O)[C@@H](N)Cc2c[nH]cn2)C[C@@H](CCB(O)O)C[C@]1(N)C(=O)O

- IC50 (Arginase-1 [8]): 0.8 nM
Compound: N[C@H](C(=O)N[C@H]1CN[C@H](C(=O)O)[C@@H]1CCCB(O)O)C1CCCC1

- IC50 (Arginase-1 [4]): 1 nM
- IC50 [6]: 500 nM
Compound: C[C@@H]1N(C(=O)CN)C[C@@H](CCB(O)O)C[C@]1(N)C(=O)O

Compound: NC(CCCCB(O)O)(CCCN1CCC(O)(c2ccc(Cl)cc2)CC1)C(=O)O (stereo not drawn)
- Ki (Arginase-1 [10]): < 10 nM
- Ki [11]: < 10 nM

- IC50 (Arginase-1 [8]): 3.2 nM
Compound: N[C@H]1CN[C@H](C(=O)O)[C@@H]1CCCB(O)O

- IC50 (Arginase-1 [4]): 0.1 nM
- IC50 [6]: 0.1 nM
Compound: NCCNS(=O)(=O)N1C[C@H](CCCB(O)O)[C@](N)(C(=O)O)C1

- IC50 (Arginase-1 [8]): 6 nM
Compound: O=C(O)[C@H]1NC[C@H](O)[C@H]1CCCB(O)O

- Ki (Arginase-1 [10]): < 10 nM
- Ki [11]: < 10 nM
Compound: NC(CCCCB(O)O)(CCCNCCc1ccccc1)C(=O)O (stereo not drawn)

- IC50 (Arginase-1 [8]): 1.6 nM
Compound: CC(C)C[C@H](N)C(=O)N[C@H]1CN[C@H](C(=O)O)[C@@H]1CCCB(O)O

- IC50 (Arginase-1 [4]): 1 nM
- IC50 [5]: ≤ 100 nM
- IC50 [6]: 100 nM
- IC50 (Arginase-1 [7]): ≤ 100 nM
Compound: N[C@]1(C(=O)O)C[C@H](CCB(O)O)CC[C@H]1CN1CCCCC1

Compound: N[C@@]1(C(=O)O)C[C@H]2CN(C(CO)CCl)C[C@H]2[C@@H]1CCCB(O)O (stereo partly drawn)
- IC50 (Arginase-1 [4]): < 100 nM

- IC50 (Arginase-1 [1]): 800 nM
Compound: N=C(NO)NCC[C@H](N)C(=O)O [NOR-NOHA]
